Experimental data as given in patent US20240376062A1, “COMPOUNDS FOR THE TREATMENT OF ALZHEIMER’S DISEASE” (BOARD OF TRUSTEES OF MICHIGAN STATE UNIVERSITY, priority 2021, published 2024).
“Also recorded” adds a separate entry of the source.

Assays:
p-tau [1] = target: T1, p-tau (Homo sapiens, UniProt P10636); assay: Thioflavin-S (ThS) fluorescence assay of p-tau fibril formation; type: biochemical; conditions: compound 100 μM, about 15x molar excess to p-tau
T1 construct: made in house
Experimental: p-Tau from the stock solution of 1 mM was added to 20 mM Tris buffer (pH 7.4) with 1 mM DTT and transferred to a black microplate 384 well plate with flat bottom and medium binding (greiner bio-one, ref 784076). Each well contained a final volume of 10 μL with a peptide final concentration of 6 μM. Experiments in the presence of p-tau were initiated by adding a solution of ThS at a final concentration of 20 μM with different compounds. Final compound concentrations ranged from 25 to 100 μM. The background sample consisted of 0.1% DMSO in buffer without p-tau. The plate was sealed and read with the excitation and emission wavelengths set at 440 and 490 nm, respectively, with a Synergy HT multi-mode microplate reader (BioTek, Winooski, VT). Measurements were taken at 37° C. every 10 min for 16 hours. Samples were measured in three replicates and the experiments were repeated three times using different p-tau stock solutions. For each time point, arbitrary units of fluorescence were calculated from the mean values normalized against the maximum value in each completed assay. Arbitrarily, the maximum value (100%) for the fluorescence intensity was established for p-tau with 0.1% DMSO.
The structure of three newly synthesized small molecules representing the sulfonamide (JF-19-73), sulfonylurea (JF(Tr)-20-58), and urea (JF-19-43, JF(TT)-19-5) series are presented in FIG. 1. These molecules were assessed for their anti-aggregation and cytoprotection effects using biophysical methods and survival assays on human neuroblastoma SH-SY5Y cells, respectively. […] First, the formation of fibrils was monitored by measuring the fluorescence intensity of the dye thioflavin-S (ThS) with the excitation and emission wavelengths set at 440 and 490 nm. The fluorescent dye ThS specifically binds to the cross β-sheet structure of protein fibrils, providing a strong fluorescence emission.^[14] Since the fluorescence emission increases with fibrils formation, the kinetic process of fibrillization is routinely assessed using ThS fluorescence as the primary assays to screen for the candidate inhibitors. […]

p-tau [2] = target: T1, p-tau; assay: Photo-induced cross-linking (PICUP) assay of p-tau oligomerization; type: biochemical; conditions: for dose dependence of inhibition of p-tau oligomerization: dose response experiments, FIG. 3 lower panel (B); for inhibition of p-tau oligomer formation (cross-linking): p-tau 6 μM preincubated with compound 50 μM for 24 hours
Experimental: p-Tau was diluted in 10 mM phosphate buffer (pH 7.4) at a final concentration of 10 μM and preincubated with different compounds for 24 h prior cross-linking. Different compounds were added to the p-tau solution at a final concentration of 12.5, 25, or 50 μM. The control consisted of samples without Ru(bpy), light exposition, and without compound. The reaction buffer consisted of 300 μM Ru(bpy), 6 mM ammonium persulfate. Prior light exposure, p-tau was diluted to a final concentration of 6 μM. Cross-linking was induced by irradiation, for 3 s, at a final volume of 20 μL, with a 53 W (120 V) incandescent lamp installed in a homemade dark-box. After irradiation, 8.3 μL of Lammeli loading buffer was immediately added to the solution, followed by incubation at 95° C. for 10 min. The cross-linked samples were separated on a 10% SDS-Page gel and visualized by Coomassie blue staining.
(§1) To examine how JF-19-73 affected p-tau fibrillization, two approaches were taken. Firstly, we used the Photo-Induced Cross-linking of Unmodified Proteins (PICUP) assay to investigate p-tau oligomerization under the influence of JF19-73 (FIG. 3). After being subjected to short light exposure, p-tau was cross-linked and resolved as a smear of higher molecular weight (lane 3, FIG. 3).^[6c] […] We further perform transmission electron microscopy to visualize the extent and morphology of p-tau fibrils.

SH-SY5Y cells = assay: Cell viability assay, protection from aggregated p-tau and compound toxicity; type: cell-based, human; conditions: for protection of SH-SY5Y cells against p-tau cytotoxicity: 0.8 μM p-tau, compound 8 μM (molar ratio 1:10)
Experimental: Cells were maintained in a 37° C., 5% CO2 incubator, in exponential growth, for the duration of experimentation. For this assay, cells were seeded in 96-well microtiter plates at a density of 5×10^3 SH-SY5Y cells per well for 24 h. Compounds freshly solubilized in DMSO were diluted in culture medium and aliquots containing sequential dilution of drugs were added subsequently after stimulation with 2 μM of p-tau. p-Tau was dissolved and incubated in 10 mM PBS (pH 7.4, 25° C.) 24 h before addition to cells. Compounds were tested at 2, 4, and 8 μM and DMSO concentration was maintained at 0.1% to avoid growth inhibition. […] Plates were incubated for 24 h in the presence of compounds and p-Tau. Cell-based assays were performed as previously described ((Liu et al, 2020, Sci. Rep. Hyperphosphorylated tau aggregation and cytotoxicity modulators screen identified prescription drugs linked to Alzheimer's disease and cognitive functions. Liu M, Dexheimer T, Sui D, Hovde S, Deng X, Kwok R, Bochar D A, Kuo M H. Sci Rep. 2020 Oct. 6; 10(1):16551. doi: 10.1038/s41598-020-73680-2.). The cell viability was calculated from fluorescence measured with a Synergy HT multi-mode microplate reader (BioTek, Winooski, VT). The data from experiments conducted in triplicate were corrected for the background fluorescence of the medium and was expressed as the mean percentage of fluorescence obtained for control DMSO-treated cells. The growth inhibition percentage was calculated with reference to DMSO-treated cells for each compound concentration. The results were obtained from at least three separated experiments. The cell viability assay was considered valid when the variability among data for a given set of conditions, within the same experiment, was less than 10% with respect to the mean value. All values represent means±SD (n=3).
Cell viability assays were performed using SH-SY5Y cells to evaluate the potential of the molecules representing the sulfonamide, sulfonylurea, and urea series to protect cells from aggregated p-tau (FIG. 5). The survival rate was assessed after treatment with 0.8 μM p-tau in the absence or the presence of JF-19-73, JF-19-43 (urea), JF(TT)-20-58 at 8 μM. […] It has been reported previously (Liu et al, 2020, Sci. Rep. Hyperphosphorylated tau aggregation and cytotoxicity modulators screen identified prescription drugs linked to Alzheimer's disease and cognitive functions. Liu M, Dexheimer T, Sui D, Hovde S, Deng X, Kwok R, Bochar D A, Kuo M H. Sci Rep. 2020 Oct. 6; 10(1):16551. doi: 10.1038/s41598-020-73680-2.) that not all effective p-tau aggregation inhibitors, as indicated by significant reductions in ThSmax, were cytoprotective.

p-tau [3] = target: T1, p-tau; assay: Transmission electron microscopy of p-tau fibrils; type: biochemical; conditions: p-tau 20 μM, compound 100 μM, 24 hours, vs. DMSO
Experimental: […] A volume of 10 μL was applied on a 400-mesh Formvar-carbon-coated cooper grid (Electron Microscopy Sciences, Hatfield, PA) to confirm the presence or the absence of fibrils. The grids were incubated for 1 minute and washed three times with distilled water. They were carefully air-dried and incubated for 1 minute in a fresh solution of 1% uranyl acetate. Samples were air-dried and observed using a transmission microscope (JEOL 1400 Flash, Japan). Pictures were acquired at an accelerating voltage of 100 kV and magnification of 40 and 80 k.
as §1

[4] = Solubility in aqueous phase; type: physicochemical

T1 sequence (P10636 1-412 isoform P10636-7): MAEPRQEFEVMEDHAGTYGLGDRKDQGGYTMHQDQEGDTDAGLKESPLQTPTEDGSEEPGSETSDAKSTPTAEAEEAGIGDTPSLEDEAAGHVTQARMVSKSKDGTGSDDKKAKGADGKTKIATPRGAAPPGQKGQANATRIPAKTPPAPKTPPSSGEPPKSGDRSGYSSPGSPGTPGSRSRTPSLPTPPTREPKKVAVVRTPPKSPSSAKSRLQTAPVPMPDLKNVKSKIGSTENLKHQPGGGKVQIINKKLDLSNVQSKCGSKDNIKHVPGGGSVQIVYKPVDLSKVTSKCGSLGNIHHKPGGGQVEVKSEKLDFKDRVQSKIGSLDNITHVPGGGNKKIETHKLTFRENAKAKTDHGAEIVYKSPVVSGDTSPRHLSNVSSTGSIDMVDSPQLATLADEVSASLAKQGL

SMILES | inhibition of p-tau oligomer formation (cross-linking) (p-tau [2]; listed as JF(T)-19-58) | inhibition of p-tau oligomer formation (cross-linking) (p-tau [2]; listed as JF19-43) | solubility (S) in aqueous phase [4] | inhibition of p-tau fibril formation (ThS fluorescence intensity, ThSmax) (p-tau [1]) | dose dependence of inhibition of p-tau oligomerization (p-tau [2]) | inhibition of p-tau oligomer formation (cross-linking) (p-tau [2]) | protection of SH-SY5Y cells against p-tau cytotoxicity (SH-SY5Y cells) | p-tau fibril formation by TEM (p-tau [3]) | toxicity of compound to SH-SY5Y cells (SH-SY5Y cells; compound 8 μM without p-tau) | protection against p-tau cytotoxicity, dose dependence (SH-SY5Y cells; compound 2, 4 and 8 μM)
O=C(Nc1ccc(Cl)cc1)Nc1ccc2c(c1)Cc1ccccc1-2 [JF(NBMI)-20-45] |  |  |  | not a potent inhibitor of p-tau aggregation |  |  |  |  |  | 
O=C(Nc1ccccc1)Nc1ccc2c(c1)Cc1ccccc1-2 [JF(TT)-19-5] |  |  |  |  | negative control | had no effect |  |  |  | 
O=C(Nc1ccc2c(c1)Cc1ccccc1-2)NS(=O)(=O)c1ccc(Cl)cc1 [JF(TT)-20-58] | had no effect |  |  | not a potent inhibitor of p-tau aggregation |  | high molecular weight p-tau oligomers | negative controls |  |  | 

Further lines, with some results ahead:

inhibition of p-tau oligomer formation (cross-linking) (p-tau [2]; listed as JF(T)-19-58) | inhibition of p-tau oligomer formation (cross-linking) (p-tau [2]; listed as JF19-43) | solubility (S) in aqueous phase [4] | SMILES | inhibition of p-tau fibril formation (ThS fluorescence intensity, ThSmax) (p-tau [1]) | dose dependence of inhibition of p-tau oligomerization (p-tau [2]) | inhibition of p-tau oligomer formation (cross-linking) (p-tau [2]) | protection of SH-SY5Y cells against p-tau cytotoxicity (SH-SY5Y cells) | p-tau fibril formation by TEM (p-tau [3]) | toxicity of compound to SH-SY5Y cells (SH-SY5Y cells; compound 8 μM without p-tau) | protection against p-tau cytotoxicity, dose dependence (SH-SY5Y cells; compound 2, 4 and 8 μM)
 | high molecular weight p-tau oligomers |  | CCNC(=O)Nc1ccc2c(c1)Cc1ccccc1-2 [JF-19-43] |  |  | had no effect | negative controls |  |  | 
 |  | > 100 µM | O=S(=O)(Nc1ccc2c(c1)Cc1ccccc1-2)c1ccc(Cl)cc1 [JF-19-73] | inhibits fibril; also recorded: most potent to inhibit fibril formation | dose-dependent manner | inhibits fibril (ThSmax) and oligomer (Oligo. Inh.) formation; also recorded: stopped formation of p-tau oligomers; also recorded: effectively prevented this crosslinking | protects SH-SY5Y cells against p-tau | less fibrils; also recorded: clear effects on p-tau fibrillization | non-toxic to cells | protected cell in a dose-dependent manner
